We go through 20 compounds from BindingDB's records for PubMed 3549712 (University of Chicago, 1987).

A value given as a limit tells only on which side of the number the result lay.

This assay has as its target Trp operon repressor (Escherichia coli (strain K12), UniProt P0A881). Nature of the assay: Binding Assay. The text has this: Binding assay of L-trptophan and analogues to trp aporepressor
A word on the Kd: it is the concentration at which binding is half-saturated. A higher Kd goes with weaker binding. `NC(Cc1c[nH]c2cc([N+](=O)[O-])ccc12)C(=O)O` [6-Nitro-L-tryptophan, 17] returned a Kd of 75.6 µM. The compound `NCCc1c[nH]c2ccccc12` [Tryptamine, 15] yielded a Kd of 41.1 µM. The compound `O=C(O)C(O)Cc1c[nH]c2ccccc12` [L-Indole-3-lactic acid, 13] showed a Kd of 35.2 µM. For the compound `c1ccc2[nH]ccc2c1`, the Kd stood at 25.1 µM. The same measure for `O=C(O)CCc1c[nH]c2ccccc12` [Indole-3-propionic acid, 4]: 9.74 µM; for `NC(=O)C(N)Cc1c[nH]c2ccccc12` [L-Tryptophanamide, 9]: 27.7 µM; for `Cc1ccc2[nH]cc(CC(N)C(=O)O)c2c1` [5-Methyl-L-tryptophan, 2]: 3.25 µM. In turn, `COC(=O)C(N)Cc1c[nH]c2ccccc12` [L-Tryptophan methyl ester, 14] displayed a Kd of 37.1 µM. In the case of `O=C(O)/C=C/c1c[nH]c2ccccc12` [3-Beta-Indole-acrylic acid (Tran), 1], the Kd is 0.516 µM.

The compound `COc1ccc2[nH]cc(CC(N)C(=O)O)c2c1` [5-Methoxyu-L-tryptophan, 11] registered a Kd of 30.7 µM. With `OCCc1c[nH]c2ccccc12` [Tryptaphol, 6], the Kd is 23.3 µM. Turning to `O=C(O)CCCc1c[nH]c2ccccc12` [Indole-3-butyric acid, 3], the Kd came to 5.51 µM. Take `c1ccc2c(c1)CCN2` [Indoline, 19]: the Kd worked out at 174 µM. `NC(Cc1c[nH]c2ccc(O)cc12)C(=O)O` [5-Hydroxy-L-tryptophan, 22] returned a Kd of 2840 µM. As for `Cc1ccc2[nH]cc(CCN)c2c1` [5-Methyl-tryptamine, 10], the Kd worked out at 28.8 µM. As for `Cn1cc(CC(N)C(=O)O)c2ccccc21` [1-Methyl-L-tryptophan, 8], binding was characterised by a dissociation constant (Kd) of 26.4 µM. With `O=C(O)Cc1c[nH]c2ccccc12` [Indole-3-acetic acid, 16], the Kd was determined as 72.9 µM. Compound `NC(Cc1ccccc1)C(=O)O` [L-Phenylalanine, 23] registered a Kd of more than 3000 µM. The same measure for `O=CNC(Cc1c[nH]c2ccccc12)C(=O)O` [N-Formyl-L-tryptophan, 18]: 117 µM. `NC(Cc1c[nH]c2ncccc12)C(=O)O` [7-Aza-L-tryptophan, 21] gave a Kd of 466 µM.
